These results are taken from US4029688A, “Carbamic pesticidal compositions” (priority 1974, dated 1977).

Values after ≈ are worked out from the molar mass of the structure shown.

Format in all cases: in vivo
Assay [1] deals with two-spotted mite (Tetranychus urticae Koch). The experiment in a line: Mite Systemic Test. Further details: key: C: no control; B: partial control; A: excellent control. The conditions noted are these: soil drench, 20 milliliters of test formulation. As to the method: (§1) Suspensions of the test compounds were prepared by dissolving one gram of compound in 50 milliliters of acetone in which had been dissolved 0.1 gram (10 percent of the weight of compound) of an alkylphenoxy polyethoxyethanol surfactant, as an emulsifying or dispersing agent. The resulting solution was mixed into 150 milliliters of water to give roughly 200 milliliters of a suspension containing the compound in finely divided form. The thus-prepared stock suspension contained 0.5 percent by weight of compound. The test concentrations in parts per million by weight employed in the tests described hereinbelow were obtained by appropriate dilutions of the stock suspension with water. The test procedures were as follows:
(§2) Adults and numphal stages of the two-spotted mite (Tetranychus urticae Koch), reared on Tendergreen bean plants at 80±5 percent relative humidity, were the test organisms. Infested leaves from a stock culture were placed on the primary leaves of two bean plants six to eight inches in height, growing in a 21/2 inch clay pot. 150 -200 Mites, a sufficient number for testing, transferred from the excised leaves to the fresh plants in a period of twenty-four hours. Following the twenty-four hour transfer period, the excised leaves were removed from the infested plants. The test compounds were formulated by diluting the stock suspension with water to give a suspension containing 500 parts of test compound per million parts of final formulation. The potted plants (one pot per compound) were placed on a revolving turntable and sprayed with 100-110 milliliters of test compound formulation by use of a DeVilbiss spray gun set at 40 psig. air pressure. This application, which lasted 25 seconds, was sufficient to wet the plants to run-off. As a control, 100-110 milliliters of a water solution containing acetone and emulsifier in the same concentrations as the test compound formulation, but containing no test compound, were also sprayed on infested plants. The sprayed plants were held at 80±5 percent relative humidity for six days, after which a mortality count of motile forms was made. Microscopic examination for motile forms was made on the leaves of the test plants. Any individual which was capable of locomotion upon prodding was considered living.
Systemic treatments were made by drenching 20 milliliters of the test compound formulation into the soil around the roots of bean plants growing in 21/2 inch clay pots. These pots were held in 4 ounce wax paper containers to prevent cross-contamination and loss by leaching. The plants were 4 inches high at the time of treatment and had been infested with mites 24 hours previously. Subsequent steps for testing of the systemic miticidal activity were the same as those described above for the spray method of application.
(§3) In the tests described above, the pesticidal activity of the compounds against aphid, mite, Southern Armyworm, Bean Beetle, house fly and nematode was rated as follows: […]

Assay [2] has as its system bean aphid (Aphis fabae Scop.). The experiment in a line: Bean Aphid Foliage Spray Test. Also on record: key to Aphid: C: no control; B: partial control; A: excellent control. Particulars: for Aphid: foliage spray, 500 parts per million, 24 hour; for LC50: Aphis fabae, foliar, Table II, side by side comparison, read-out: Aphids LD50. On the procedure: as §1
Adults and nymphal stages of the bean aphid (Aphis fabae Scop.) reared on potted dwarf nasturtium plants at 65°-70° F. and 50-70 percent relative humidity, constituted the test insects. For testing purposes, the number of aphids per pot was standardized to 100-150 by trimming plants containing excess aphids.
The test compounds were formulated by diluting the stock suspension with water to give a suspension containing 500 parts of test compound per million parts of final formulation.
The potted plants (one pot per compound tested) infested with 100-150 aphids, were placed on a revolving turntable and sprayed with 100-110 milliliters of test compound formulation by use of a DeVilbiss spray gun set at 40 psig. air pressure. This application, which lasted 25 seconds, was sufficient to wet the plants to run-off. As a control, 100-110 milliliters of a water-acetone-emulsifier solution containing no test compound were also sprayed on infested plants. After spraying, the pots were placed on their sides on a sheet of white standard mimeograph paper which had been previously ruled to facilitate counting. Temperature and humidity in the test room during the 24 hour holding period were 65°-70° F. and 50-70 percent, respectively. Aphids which fell onto the paper and were unable to remain standing after being uprighted were considered dead. Aphids remaining on the plants were observed closely for movement and those which were unable to move the length of the body upon stimulation by prodding were considered dead. Percent mortality was recorded for various concentration levels.
(§4) In the tests described above, the pesticidal activity of the compounds against aphid, mite, Southern Armyworm, Bean Beetle, house fly and nematode was rated as follows:
(§5) Comparison tests were conducted to assess the biological and chemical properties of certain representative species of the claimed invention in relation to their corresponding N-methyl carbamate compositions. The test procedures described above were employed in these experiments in order to determine the LD50 (number of parts per million of active ingredients required to achieve fifty percent mortality of the insects tested) for each of the compositions tested. In the case of the aphid and mite tests a side by side comparison was made of the N-methyl carbamate composition versus the corresponding perhalomethylsulfenyl derivative.

For assay [3], the system named is two-spotted mite (Tetranychus urticae Koch). Briefly: Mite Foliage Spray Test. The conditions noted are these: for Mite (Spray): foliage spray, 500 parts per million, six days; for LC50: Tetranychus urticae, foliar, Table II, side by side comparison, read-out: Mites Spray LD50. Also on record: key to Mite (Spray): C: no control; B: partial control; A: excellent control. As to the method: as §1, §2, §4, §5

The subject of assay [4] is root-knot nematode, Meloidogyne incognita var. acrita. Briefly: Nematocide Test. Also on record: key: C: no control; B: partial control; A: excellent control. The conditions noted are these: 3.33 m.g. per jar, galling of cucumber rated after approximately 3 weeks. As to the method: The test organism used was the infective migratory larvae of the root-knot nematode, Meloidogyne incognita var. acrita, reared in the greenhouse on roots of cucumber plants. Infected plants were removed from the culture, and the roots are chopped very finely. A small amount of this inoculum was added to a pint jar containing approximately 180 cc. of soil. The jars were capped and incubated for one week at room temperature. During this period eggs of the nematode were hatched, and the larval forms migrated into the soil.
Ten ml. of the test formulation were added to each of the two jars for each dosage tested. Following the addition of chemical, the jars were capped, and the contents thoroughly mixed on a ball mill for 5 minutes.
The test compounds were formulated by a standard procedure of solution in acetone addition of an emulsifier, and dilution with water. Primary screening tests were conducted at 3.33 m.g. of the test compound per jar.
The jars were left capped at room temperature for a period of 48 hours, and the contents then transferred to 3 inch pots. Subsequently, the pots were seeded to cucumber as an indicator crop and placed in the greenhouse where they were cared for in the normal fashion for approximately 3 weeks.
The cucumber plants were then taken from the pots, the soil removed from the roots, and the amount of galling visually rated.
as §3

In the case of `CSCC(C)=NOC(=O)N(C)SC(Cl)(Cl)Cl`, the “Mite (Systemic)” value in assay [1] is reported as “C”. Moreover, the Aphid result in assay [2] was “B”. The “Mite (Spray)” value in assay [3] was “C”. For the same compound, the Nematode entry in assay [4] is “C”.

`CSCC(=NOC(=O)N(C)SC(Cl)(Cl)Cl)C(C)(C)C`: the “Mite (Systemic)” value in assay [1] is “A”. Moreover, the Aphid result in assay [2] is given as “A”. Also, the “Mite (Spray)” value in assay [3] is reported as “A”. In addition, the Nematode entry in assay [4] is “C”.

As to `CC(CSC(C)(C)C)=NOC(=O)N(C)SC(Cl)(Cl)Cl`, the “Mite (Systemic)” value in assay [1] was “C”. Moreover, in assay [2], the Aphid result was “A”. The “Mite (Spray)” value in assay [3] is recorded as “C”. Besides, in assay [4], the Nematode result is recorded as “C”.

On to `CC(=NOC(=O)N(C)SC(Cl)(Cl)Cl)C(C)(C)N=[N+]=[N-]`, for which, in assay [1], the “Mite (Systemic)” value is recorded as “C”. In assay [2], the Aphid entry is listed as “A”. In addition, in assay [3], the “Mite (Spray)” value is on record as “C”. Further, in assay [4], the Nematode entry is listed as “C”.

Turning to `CC(=NOC(=O)N(C)SC(Cl)(Cl)Cl)C(C)(C)[N+](=O)[O-]`, the “Mite (Systemic)” value in assay [1] is given as “A”. Besides, the Aphid entry in assay [2] is listed as “A”. For the same compound, in assay [3], the “Mite (Spray)” value is listed as “A”. Moreover, in assay [4], the Nematode result was “A”.

For the compound `CC(C[N+](=O)[O-])=NOC(=O)N(C)SC(Cl)(Cl)Cl`, the “Mite (Systemic)” value in assay [1] is “C”. The Aphid entry in assay [2] was “C”. Moreover, the “Mite (Spray)” value in assay [3] was “C”. The Nematode entry in assay [4] is listed as “C”.

With `CC(=NOC(=O)N(C)SC(Cl)(Cl)Cl)C(C)(C)C#N`, the “Mite (Systemic)” value in assay [1] is on record as “A”. For the same compound, the Aphid result in assay [2] is “A”. In addition, the “Mite (Spray)” value in assay [3] is recorded as “A”. The Nematode entry in assay [4] was “C”.

On to `COC(C)(C)C(Cl)=NOC(=O)N(C)SC(Cl)(Cl)Cl`, for which the “Mite (Systemic)” value in assay [1] is “A”. For the same compound, the Aphid result in assay [2] is “A”. Further, the “Mite (Spray)” value in assay [3] was “A”. Moreover, in assay [4], the Nematode entry was “A”.

Take `CCOC(=O)CSC(C)(C)C=NOC(=O)N(C)SC(Cl)(Cl)Cl`: the “Mite (Systemic)” value in assay [1] is “C”. Moreover, the Aphid entry in assay [2] is reported as “A”. In addition, the “Mite (Spray)” value in assay [3] was “C”. Besides, the Nematode entry in assay [4] is listed as “C”.

In the case of `CCOC(=O)C(C)SC(C)(C)C=NOC(=O)N(C)SC(Cl)(Cl)Cl` (centres unmarked), the “Mite (Systemic)” value in assay [1] is on record as “B”. Moreover, in assay [2], the Aphid result was “A”. In assay [3], the “Mite (Spray)” value is listed as “B”. For the same compound, the Nematode result in assay [4] is given as “C”.

In the case of `CSC(=NOC(=O)N(C)SC(Cl)(Cl)Cl)C(C)(SC)SC`, in assay [1], the “Mite (Systemic)” value is “B”. The Aphid result in assay [2] is “A”. Further, in assay [3], the “Mite (Spray)” value was “A”. The Nematode entry in assay [4] is reported as “C”.

As for `CCOC(=O)CSC(C)=NOC(=O)N(C)SC(Cl)(Cl)Cl`, in assay [1], the “Mite (Systemic)” value is listed as “C”. In addition, the Aphid result in assay [2] is “C”. Further, the “Mite (Spray)” value in assay [3] is “C”. Further, the Nematode entry in assay [4] is reported as “C”.

On to `CCOC(=O)CCSC(C)=NOC(=O)N(C)SC(Cl)(Cl)Cl`, for which, in assay [1], the “Mite (Systemic)” value is reported as “C”. In addition, the Aphid result in assay [2] was “B”. For the same compound, the “Mite (Spray)” value in assay [3] was “C”. In addition, the Nematode result in assay [4] is “C”.

As to `CC(=NOC(=O)N(C)SC(Cl)(Cl)Cl)SCCC#N` [1-(2-Cyanoethylthio)acetaldehyde O-(N-methyl-N-trichloromethanesulfenylcarbamoyl)oxime], in assay [2], the LC50 worked out at 10 µg/mL (≈ 28.5 µM) and the Aphid result is recorded as “A”. Further, in assay [3], the LC50 is 22 µg/mL (≈ 62.7 µM) and the “Mite (Spray)” value is listed as “A”. The Nematode result in assay [4] is “C”.

Take `CN(SC(Cl)(Cl)Cl)C(=O)ON=CC(C)(C)C#N` [2-Methyl-2-cyanopropionaldehyde O-(N-methyl-N-trichloromethanesulfenylcarbamoyl)oxime]: the “Mite (Systemic)” value in assay [1] is reported as “A”. Further, in assay [2], the LC50 was 23 µg/mL (≈ 72.2 µM) and the Aphid entry was “A”. In addition, in assay [3], the LC50 was 23 µg/mL (≈ 72.2 µM) and the “Mite (Spray)” value is reported as “A”. Besides, in assay [4], the Nematode result is “C”.

For the compound `CN(SC(Cl)(Cl)Cl)C(=O)ON=CC(C)(C)[S+](C)[O-]` (centres unmarked) [2-Methyl-2-methylsulfinylpropionaldehyde O-(N-methyl-N-trichloromethanesulfenylcarbamoyl)oxime], in assay [1], the “Mite (Systemic)” value is “A”. The Aphid entry in assay [2] was “A”. The “Mite (Spray)” value in assay [3] is on record as “A”. Moreover, the Nematode result in assay [4] was “A”.

On to `CN(SC(Cl)(Cl)Cl)C(=O)ON=CC(C)(C)S(C)(=O)=O` [2-Methyl-2-methylsulfonylpropionaldehyde O-(N-methyl-N-trichloromethanesulfenylcarbamoyl)oxime], for which the “Mite (Systemic)” value in assay [1] was “C”. In addition, the Aphid result in assay [2] is “A”. For the same compound, the “Mite (Spray)” value in assay [3] is given as “A”. Also, the Nematode entry in assay [4] is “C”.

In the case of `CN(SC(Cl)(Cl)Cl)C(=O)ON=CC(C)(C)[N+](=O)[O-]` [2-Methyl-2-nitropropionaldehyde O-(N-methyl-N-trichloromethanesulfenylcarbamoyl)oxime], the “Mite (Systemic)” value in assay [1] is “A”. In assay [2], the LC50 came out at 6 µg/mL (≈ 17.7 µM) and the Aphid entry was “A”. In addition, in assay [3], the LC50 worked out at 40 µg/mL (≈ 118 µM) and the “Mite (Spray)” value is “A”. The Nematode entry in assay [4] is on record as “A”.

Regarding `CN(SC(F)(F)F)C(=O)ON=CC(C)(C)C#N` [drawing 12], the Aphid result in assay [2] is on record as “A”. Besides, the “Mite (Spray)” value in assay [3] is “A”. For the same compound, the Nematode result in assay [4] was “A”.
